Source: patent US3991202A, “Imidazolium salts” (Janssen Pharmaceutica N.V., priority 1974, dated 1976)
Read-outs that look alike come from different tables or passages of the source.

Key:
Test in all cases: Antibacterial growth inhibition in phenol red dextrose broth
Format in all cases: cell-based
Erysipelothrix insidiosa = details: Erysipelothrix rhusiopathiae, 168 h; E. ins.; tested at 100, 10, 1 μg/ml; read-out: Concentration in μ g for 100% Growth Inhibition
Description: (§1) The tests on bacteria were performed on cultures on phenol red dextrose broth medium (Difco). By using decimal dilution techniques described for the tests for antifungal activity, test media containing 100 μg, 10 μg and 1 μg of imidazolium salt per milliliter of medium were obtained. The inoculum consisted of a platinum loop (5 mm diameter) from a 24 hour broth culture. Forty-eight hours after incubation, subcultures were made from each culture for the determination of antibacterial activity of the imidazolium salts. After seven days of incubation, observations were made to determine the presence or absence of bacterial growth.

Escherichia coli = details: 168 h, E. coli, tested at 100, 10, 1 μg/ml, read-out: Concentration in μ g for 100% Growth Inhibition
Description: as §1

Pseudomonas aeruginosa = details: 168 h, Ps. aer., read-out: Concentration in μ g for 100% Growth Inhibition
Description: as §1

[1] = tested on: Salmonella pullorum gallinarum; details: Salmonella enterica, 168 h; Sp. G.; tested at 100, 10, 1 μg/ml; read-out: Concentration in μ g for 100% Growth Inhibition
Description: as §1

[2] = tested on: Staphylococcus hemolyticus; details: 168 h, Staph., tested at 100, 10, 1 μg/ml, read-out: Concentration in μ g for 100% Growth Inhibition
Description: as §1

Streptococcus pyogenes = details: 168 h, Strep., tested at 100, 10, 1 μg/ml, read-out: Concentration in μ g for 100% Growth Inhibition
Description: as §1

| Compound | MIC (Erysipelothrix insidiosa) [µg/mL] | MIC (Escherichia coli) [µg/mL] | MIC (Pseudomonas aeruginosa; tested at 100, 10, 1 μg/ml) [µg/mL] | MIC [1] [µg/mL] | MIC [2] [µg/mL] | MIC (Streptococcus pyogenes) [µg/mL] | MIC (Pseudomonas aeruginosa; growth observed at 100 μg/ml) [µg/mL] |
| --- | --- | --- | --- | --- | --- | --- | --- |
| Cc1cc(Cl)ccc1NC(=O)CCn1cc[n+](CC(OCc2ccc(Cl)cc2Cl)c2ccc(Cl)cc2Cl)c1.[Cl-] (stereo not drawn) [(CH2)2CONHC6H32,4(CH3,Cl), 1-{2-[N-(4-chloro-o-tolyl)carbamoyl]ethyl}-3-[2,4-dichloro-β-(2,4-dichlorobenzyloxy)phenethyl]imidazolium chloride] | 1 | 100 | 100 | 10 | 1 | 1 |  |
| Clc1ccc(COC(C[n+]2ccn(CCNc3ccccc3)c2)c2ccc(Cl)cc2Cl)c(Cl)c1.[Br-] (stereo not drawn) [(CH2)2NHC6H5, 1-(2-Anilinoethyl)-3-[2,4-dichloro-β-(2,4-dichlorobenzyloxy)phenethyl]imidazolium bromide] | 1 | 10 | 100 | 10 | 1 | 1 |  |
| Clc1ccc(COC(C[n+]2ccn(CCNc3c(Cl)cccc3Cl)c2)c2ccc(Cl)cc2Cl)c(Cl)c1.O.[Br-] (stereo not drawn) [(CH2)2NHC6H32,6(Cl)2, 1-[2-(2,6-Dichloroanilino)ethyl]-3-[2,4-dichloro-β-(2,4-dichlorobenzyloxy)phenethyl]imidazolium bromide hydrate] | 1 | 10 | 100 | 10 | 1 | 1 |  |
| CCCCOC(Cn1cc[n+](CC(=O)Nc2ccc(F)cc2)c1)c1ccccc1Cl (stereo not drawn) [C6H4oCl/nC4H9/CH2CONHC6H4pF] | 10 | 100 | 100 | 100 | 100 | 10 |  |
| Cc1ccccc1NC(=O)C[n+]1ccn(CC(OCc2ccc(Cl)cc2)c2ccc(Cl)cc2)c1 (stereo not drawn) [C6H4pCl/CH2C6H4pCl/CH2CONHC6H4oCH3, 1-[p-Chloro-β-(p-chlorobenzyloxy)phenethyl]-3-(N-o-toylcarbamoylmethyl)imidazolium chloride] | 10 | 100 | 100 | 100 | 10 | 10 |  |
| Cc1ccccc1NC(=O)C[n+]1ccn(CC(OCc2ccc(Cl)cc2Cl)c2ccc(Cl)cc2)c1 (stereo not drawn) [C6H4pCl/CH2C6H32,4(Cl)2/CH2CONHC6H4oCH3, 1-[p-Chloro-β-(2,4-dichlorobenzyloxy)phenethyl]-3-(N-o-tolylcarbamoylmethyl)imidazolium chloride hydrate] | 1 | 100 | 100 | 10 | 100 | 1 |  |
| O=C(C[n+]1ccn(CC(OCc2ccc(Cl)cc2Cl)c2ccc(Cl)cc2)c1)Nc1ccc(F)cc1 (stereo not drawn) [C6H4pCl/CH2C6H32,4(Cl)2/CH2CONHC6H4pF, 1-[p-chloro-β-(2,4-dichlorobenzyloxy)phenethyl]-3-[N-(p-fluorophenyl)carbamoyl-methyl]imidazolium chloride] | 1 | 10 | 100 | 10 | 10 | 1 |  |
| Clc1ccc(COC(C[n+]2ccn(Cc3ccccc3)c2)c2ccccc2)cc1.[Br-] (stereo not drawn) [C6H5/CH2C6H4pCl/CH2C6H5, 1-Benzyl-3-[β-(p-chlorobenzyloxy)phenethyl]imidazolium bromide] | 100 | 100 |  | 100 | 10 | 10 | > 100 |
| Cc1ccc(C[n+]2ccn(CC(OCc3ccc(Cl)cc3Cl)c3ccc(Cl)cc3Cl)c2)cc1.[Br-] (stereo not drawn) [CH2C6H4pCH3, 1-[2,4-Dichloro-β-(2,4-dichlorobenzyloxy)phenethyl]-3-(p-methylbenzyl)imidazolium bromide] | 10 | 10 | 100 | 100 | 1 | 1 |  |
| Fc1ccc(C[n+]2ccn(CC(OCc3ccc(Cl)cc3Cl)c3ccc(Cl)cc3Cl)c2)cc1.[I-] (stereo not drawn) [CH2C6H4pF, 1-[2,4-Dichloro-β-(2,4-dichlorobenzyloxy)phenethyl]-3-(p-fluorobenzyl)-imidazolium iodide] | 10 | 100 | 100 | 10 | 1 | 1 |  |
| OC(Cn1cc[n+](CC(OCc2ccc(Cl)cc2Cl)c2ccc(Cl)cc2Cl)c1)c1ccc(Cl)cc1.[Br-] (stereo not drawn) [CH2CHOHC6H4pCl, 1-(p-chloro-β-hydroxyphenethyl)-3-[2,4-dichloro-β-(2,4-dichlorobenzyloxy)phenethyl]imidazolium bromide] | 1 | 10 | 100 | 10 | 1 | 1 |  |
| COc1ccccc1NC(=O)C[n+]1ccn(CC(OCc2ccc(Cl)cc2Cl)c2ccc(Cl)cc2Cl)c1 (stereo not drawn) [CH2CONHC6H4oOCH3, 1-[2,4-dichloro-β-(2,4-dichlorobenzyloxy)phenethyl]-3-[N-(o-methoxyphenyl)carbamoylmethyl]imidazolium chloride hydrate] | 1 | 10 | 100 | 10 | 1 | 1 |  |
| O=C(C[n+]1ccn(CC(OCc2ccc(Cl)cc2Cl)c2ccc(Cl)cc2Cl)c1)Nc1ccc(Cl)cc1 (stereo not drawn) [CH2CONHC6H4p(Cl), 1-[N-(p-chlorophenyl)carbamoylmethyl]-3-[2,4-dichloro-β-(2,4-dichlorobenzyloxy)phenethyl]imidazolium chloride hydrate] | 1 | 10 | 100 | 100 | 10 | 1 |  |
| O=C(C[n+]1ccn(CC(OCc2ccc(Cl)cc2Cl)c2ccc(Cl)cc2Cl)c1)Nc1ccc(F)cc1 (stereo not drawn) [CH2CONHC6H4pF, 1-[2,4-dichloro-β-(2,4-dichlorobenzyloxy)phenethyl]-3-[N-(p-fluorophenyl)carbamoylmethyl]imidazolium chloride] | 1 | 10 | 100 | 10 | 1 | 1 |  |
| COc1ccc(NC(=O)C[n+]2ccn(CC(OCc3ccc(Cl)cc3Cl)c3ccc(Cl)cc3Cl)c2)cc1 (stereo not drawn) [CH2CONHC6H4pOCH3] | 1 | 10 | 100 | 10 | 1 | 1 |  |
| Cc1ccc(CNC(=O)C[n+]2ccn(CC(OCc3ccc(Cl)cc3Cl)c3ccc(Cl)cc3Cl)c2)cc1 (stereo not drawn) [CH2CONHCH2C6H4pCH3, 1-[2,4-Dichloro-β-(2,4-dichlorobenzyloxy)phenethyl]-3-[N-(p-methylbenzyl)carbamoylmethyl]imidazolium chloride] | 10 | 10 | 100 | 10 | 10 | 10 |  |
| CC(C(=O)Nc1cccc(Cl)c1)[n+]1ccn(CC(OCc2ccc(Cl)cc2Cl)c2ccc(Cl)cc2Cl)c1 (stereo not drawn) [CH(CH3)CONHC6H4mCl, 1-{1-[N-(m-Chlorophenyl)carbamoyl]ethyl 56-3-[2,4-dichloro-β-(2,4-dichlorobenzyloxy)phenethyl]imidazolium bromide] | 1 | 100 | 100 | 100 | 1 | 1 |  |
| Fc1ccc(C(c2ccc(Cl)cc2)[n+]2ccn(CC(OCc3ccc(Cl)cc3Cl)c3ccc(Cl)cc3Cl)c2)cc1 (stereo not drawn) [drawing 69] | 1 | 100 | 100 | 100 | 1 | 1 |  |
